Results reported in patent US10172843B2, “Piperidine derivatives” (Hoffmann-La Roche Inc., priority 2014, dated 2019).
Like-named read-outs stand apart in the source and are kept apart here.

Molecular target: human Cat S (Homo sapiens (Human), UniProt P25774)
Assay: Cathepsin enzyme inhibition assay (fluorogenic peptide substrate)
Format: biochemical
Conditions: read-out: CatS IC50
Method: Cathepsin Enzyme Inhibition Assay
Enzyme activity is measured by observing the increase in fluorescence intensity caused by cleavage of a peptide substrate containing a fluorophore whose emission is quenched in the intact peptide.
Assay buffer: 100 mM potassium phosphate pH 6.5, EDTA-Na 5 mM, Triton X-100 0.001%, DTT 5 mM.
Enzymes (all at 1 nM): human and mouse Cathepsin S, Cat K, Cat B, Cat L.
Substrate ([…], except for Cat K which uses Z-Leu-Arg-AMC (both from Bachem).
Excitation 360 nm, Emission 465 nm.
Enzyme is added to the substance dilutions in 96-well microtitre plates and the reaction is started with substrate. […] IC50 are calculated by standard methods.
Inhibition of human Cat S, mouse Cat S, human Cat K, mouse Cat K, human Cat B, mouse Cat B, human Cat L and mouse Cat L have been measured separately.

[1] = human Cat S, enzyme 1 nM, substrate Z-Val-Val-Arg-AMC, pH 6.5

human Cat S, sequence (P25774 115-331): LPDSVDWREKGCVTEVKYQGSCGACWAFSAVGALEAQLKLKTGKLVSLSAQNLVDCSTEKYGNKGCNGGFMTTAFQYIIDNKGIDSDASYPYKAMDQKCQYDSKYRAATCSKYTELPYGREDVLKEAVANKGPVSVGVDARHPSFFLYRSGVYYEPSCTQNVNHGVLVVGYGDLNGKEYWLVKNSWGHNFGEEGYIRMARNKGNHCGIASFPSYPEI

| SMILES | IC50 [1] | IC50 |
| --- | --- | --- |
| O=C1Nc2ccccc2CN1C1CCN(Cc2nc(-c3ccc(C(F)(F)F)cc3)[nH]c2Cc2ccccc2)CC1 [Example 56, 3-{1-[5-Benzyl-2-(4-trifluoromethyl-phenyl)-1H-imidazol-4-ylmethyl]-piperidin-4-yl}-3,4-dihydro-1H-quinazolin-2-one] | 225 nM | – |
| COC(=O)Cn1c(=O)n(C2CCN(Cc3nc(-c4ccc(C(F)(F)F)cc4)[nH]c3C)CC2)c2ccc(Cl)cc21 [Example 33, (6-Chloro-3-{1-[5-methyl-2-(4-trifluoromethyl-phenyl)-1H-imidazol-4-ylmethyl]-piperidin-4-yl}-2-oxo-2,3-dihydro-benzoimidazol-1-yl)-acetic acid methyl ester] | 130 nM | – |
| Cc1[nH]c(-c2ccc(C(F)(F)F)cc2)nc1CN1CCC(N2Cc3ccc(F)cc3NC2=O)CC1 [Example 25, 7-Fluoro-3-{1-[5-methyl-2-(4-trifluoromethyl-phenyl)-1H-imidazol-4-ylmethyl]-piperidin-4-yl}-3,4-dihydro-1H-quinazolin-2-one] | 180 nM | – |
| Cc1[nH]c(-c2ccc(C(F)(F)F)cc2)nc1CN1CCC(c2c[nH]c3ccncc23)CC1 [Example 63, 3-{1-[5-Methyl-2-(4-trifluoromethyl-phenyl)-1H-imidazol-4-ylmethyl]-piperidin-4-yl}-1H-pyrrolo[3,2-c]pyridine] | 667 nM | – |
| Cc1nn(-c2ccc(C(F)(F)F)cc2)cc1CN1CCC(N2Cc3ccccc3NC2=O)CC1 [Example 52, 3-{1-[3-Methyl-1-(4-trifluoromethyl-phenyl)-1H-pyrazol-4-ylmethyl]-piperidin-4-yl}-3,4-dihydro-1H-quinazolin-2-one] | 1380 nM | – |
| Cc1[nH]c(-c2ccc(C(F)(F)F)cc2)nc1CN1CCC(N2Cc3ccccc3NC2=O)CC1 [Example 28, 3-{1-[5-Methyl-2-(4-trifluoromethyl-phenyl)-1H-imidazol-4-ylmethyl]-piperidin-4-yl}-3,4-dihydro-1H-quinazolin-2-one] | 190 nM | – |
| Cc1[nH]c(-c2ccc(C(F)(F)F)cc2)nc1CN1CCC(N2C(=O)Cc3ccccc32)CC1 [Example 2, 1-{1-[5-Methyl-2-(4-trifluoromethyl-phenyl)-1H-imidazol-4-ylmethyl]-piperidin-4-yl}-1,3-dihydro-indol-2-one] | – | 780 nM |
| Cc1[nH]c(-c2ccc(C(F)(F)F)cc2)nc1CN1CCC(N2Cc3ccccc3N(C)C2=O)CC1 [Example 53, 1-Methyl-3-{1-[5-methyl-2-(4-trifluoromethyl-phenyl)-1H-imidazol-4-ylmethyl]-piperidin-4-yl}-3,4-dihydro-1H-quinazolin-2-one] | 145 nM | – |
| Cc1[nH]c(-c2ccc(C(F)(F)F)cc2)nc1CN1CCC(n2c(=O)[nH]c3ccc(N4CCN(C)CC4)cc32)CC1 [Example 11, 6-(4-Methyl-piperazin-1-yl)-1-{1-[5-methyl-2-(4-trifluoromethyl-phenyl)-1H-imidazol-4-ylmethyl]-piperidin-4-yl}-1,3-dihydro-benzoimidazol-2-one] | 460 nM | – |
| COCCN1C(=O)N(C2CCN(Cc3nc(-c4ccc(C(F)(F)F)cc4)[nH]c3C)CC2)Cc2ccccc21 [Example 54, 1-(2-Methoxy-ethyl)-3-{1-[5-methyl-2-(4-trifluoromethyl-phenyl)-1H-imidazol-4-ylmethyl]-piperidin-4-yl}-3,4-dihydro-1H-quinazolin-2-one] | 135 nM | – |
| Cc1[nH]c(-c2ccc(Cl)c(Cl)c2)nc1CN1CCC(N2Cc3ccccc3NC2=O)CC1 [Example 42, 3-{1-[2-(3,4-Dichloro-phenyl)-5-methyl-1H-imidazol-4-ylmethyl]-piperidin-4-yl}-3,4-dihydro-1H-quinazolin-2-one] | 287 nM | – |
| O=c1[nH]ccc2c1ncn2C1CCN(Cc2cnc(-c3ccc(C(F)(F)F)cc3)[nH]2)CC1 [Example 14, 1-[1-[[2-[4-(Trifluoromethyl)phenyl]-1H-imidazol-5-yl]methyl]-4-piperidyl]-5H-imidazo[4,5-c]pyridin-4-one] | 4320 nM | – |
| Cn1nc(CN2CCC(N3Cc4ccccc4NC3=O)CC2)nc1-c1ccc(C(F)(F)F)cc1 [Example 66, 3-{1-[1-Methyl-5-(4-trifluoromethyl-phenyl)-1H-[1,2,4]triazol-3-ylmethyl]-piperidin-4-yl}-3,4-dihydro-1H-quinazolin-2-one] | 450 nM | – |
| Cc1[nH]c(-c2ccc(C(F)(F)F)c(F)c2)nc1CN1CCC(n2c(=O)n(C)c3ccccc32)CC1 [Example 44, 1-{1-[2-(3-Fluoro-4-trifluoromethyl-phenyl)-5-methyl-1H-imidazol-4-ylmethyl]-piperidin-4-yl}-3-methyl-1,3-dihydro-benzoimidazol-2-one] | 385 nM | – |
| COCCc1[nH]c(-c2ccc(C(F)(F)F)cc2)nc1CN1CCC(N2Cc3ccccc3NC2=O)CC1 [Example 55, 3-{1-[5-(2-Methoxy-ethyl)-2-(4-trifluoromethyl-phenyl)-1H-imidazol-4-ylmethyl]-piperidin-4-yl}-3,4-dihydro-1H-quinazolin-2-one] | 350 nM | – |
| Cc1[nH]c(-c2ccc(C(F)(F)F)cc2)nc1CN1CCC(N2C(=O)COc3ccccc32)CC1 [Example 19, 4-{1-[5-Methyl-2-(4-trifluoromethyl-phenyl)-1H-imidazol-4-ylmethyl]-piperidin-4-yl}-4H-benzo[1,4]oxazin-3-one] | – | 470 nM |
| Cc1[nH]c(-c2ccc(Cl)c(Cl)c2)nc1CN1CCC(N2Cc3ccc(F)cc3NC2=O)CC1 [Example 48, 3-{1-[2-(3,4-Dichloro-phenyl)-5-methyl-1H-imidazol-4-ylmethyl]-piperidin-4-yl}-7-fluoro-3,4-dihydro-1H-quinazolin-2-one] | 450 nM | – |
| COCCc1[nH]c(-c2ccc(C(F)(F)F)cc2)nc1CN1CCC(c2c[nH]c3ccncc23)CC1 [Example 61, 3-{1-[5-(2-Methoxy-ethyl)-2-(4-trifluoromethyl-phenyl)-1H-imidazol-4-ylmethyl]-piperidin-4-yl}-1H-pyrrolo[3,2-c]pyridine] | 1940 nM | – |
| O=c1[nH]c(-c2ccc(Br)cc2)nn1C1CCN(Cc2cnc(-c3ccc(C(F)(F)F)cc3)[nH]2)CC1 [Example 16, 5-(4-Bromophenyl)-2-[1-[[2-[4-(trifluoromethyl)phenyl]-1H-imidazol-5-yl]methyl]-4-piperidyl]-4H-1,2,4-triazol-3-one] | 1500 nM | – |
| CCCc1[nH]c(-c2ccc(C(F)(F)F)cc2)nc1CN1CCC(n2c(=O)n(C)c3ccccc32)CC1 [Example 64, 1-Methyl-3-{1-[5-propyl-2-(4-trifluoromethyl-phenyl)-1H-imidazol-4-ylmethyl]-piperidin-4-yl}-1,3-dihydro-benzoimidazol-2-one] | 928 nM | – |
| Cc1[nH]c(-c2ccc(C(F)(F)F)cc2)nc1CN1CCC(n2c(=O)n(CCO)c3cc(Cl)ccc32)CC1 [Example 30, 5-Chloro-3-(2-hydroxy-ethyl)-1-{1-[5-methyl-2-(4-trifluoromethyl-phenyl)-1H-imidazol-4-ylmethyl]-piperidin-4-yl}-1,3-dihydro-benzoimidazol-2-one] | 230 nM | – |
| Cc1nc(-c2ccc(C(F)(F)F)cc2)[nH]c1CN1CCC(n2cc(-c3ccc(Br)cc3)[nH]c2=O)CC1 [Example 12, 5-(4-Bromophenyl)-3-[1-[[4-methyl-2-[4-(trifluoromethyl)phenyl]-1H-imidazol-5-yl]methyl]-4-piperidyl]-1H-imidazol-2-one] | 590 nM | – |
